Where a name gives a salt, the structure may show the parent alone.
Target: T1, H1 receptor (Cavia porcellus, UniProt P31389)
T1 construct: Strips of guinea pig ileum, 2 cm in length, were set up in an isolated organ bath; from tissue; host or cells: guinea pig ileum strips
Assay: guinea pig ileum screen (antagonism of histamine-induced contraction, pA2)
Format: cell-based
Settings: isolated guinea pig ileum strips, histamine dose response, 20 minutes incubation
Experimental: It is based upon the phenomenon that histamine causes the contraction of guinea pig ileum. Antihistamine blocks this contraction. This test may be performed in the following manner:
Strips of guinea pig ileum, 2 cm in length, were set up in an isolated organ bath in tyrode's solution which had the following composition in […] (NaCl, 136.89; KCl, 2.68; CaCl2, 1.8; MgCl2, 1.05; NaH2 PO4, 0.42; NaHCO3, […] were measured isotonically (Grass FTO3C transducer coupled with silver springs) under one gram resting tension and recorded in a Grass polygraph recorder. Cumulative histamine dose response experiments were then performed before and after treatment of tissues with test compounds (20 minutes incubation). Dose ratios were determined graphically at ED50 response levels from the histamine dose response curves, and Schild plots (Arunlakshana, O. and Schild, H. O. Some quantitative uses of drug antagonists. Br. J. Pharmacol. Chemother. 14: 48-58, 1959) were constructed to determine the pA2 values using inverse regression line analysis (Finney, D. J. Statistical methods in biological assays. Hafner Press, New York, 1964). The pA2 is defined as the negative logarithm of the molar concentratrion of antagonist which would increase the ED50 value by […]. In some experiments, pA2 values were estimated according to the method described by van Rossum (Van Rossum, J. M., Cumulative dose-response curves: Technique for the making of dose-response curves in isolated organs and the evaluation of drug parameters. Arch. Int. Pharmacodyn. Ther. 143: 299-330, 1963) which uses the following relationship: pA2=-log ([B]/(dose ratio-1)), where [B] refers to the molar concentration of antagonists used. The test compounds were prepared in ethanol (0.1% v/v).

[1] = pA2 estimated by the method of Van Rossum
[2] = pA2 by the method of Schild (Schild plots)

T1 sequence (P31389 whole entry): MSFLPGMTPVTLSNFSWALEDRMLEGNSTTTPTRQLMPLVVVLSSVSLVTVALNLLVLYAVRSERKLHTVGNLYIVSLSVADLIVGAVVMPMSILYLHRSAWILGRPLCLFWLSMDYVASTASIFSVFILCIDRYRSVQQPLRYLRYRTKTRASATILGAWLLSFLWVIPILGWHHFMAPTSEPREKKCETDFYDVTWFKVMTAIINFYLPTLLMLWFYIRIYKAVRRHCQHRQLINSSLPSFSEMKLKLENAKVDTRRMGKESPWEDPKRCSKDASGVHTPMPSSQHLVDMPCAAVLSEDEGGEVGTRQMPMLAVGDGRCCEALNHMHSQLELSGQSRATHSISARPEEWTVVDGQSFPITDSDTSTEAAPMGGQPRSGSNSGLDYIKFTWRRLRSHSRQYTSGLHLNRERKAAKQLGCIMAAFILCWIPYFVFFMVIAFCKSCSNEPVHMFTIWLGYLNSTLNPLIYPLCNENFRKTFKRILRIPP

SMILES | Kb [1] | Kb [2] | further results
CCOCCn1c(C(=O)C2CCN(C(=O)OC(C)(C)C)CC2)nc2ccccc21 [Example 1 Step a, 1-[[(2-Ethoxy)ethyl]-1H-benzimidazol-2-yl][1-(t-butyloxycarbonyl)-4-piperidinyl]methanone] | 603 nM | – | –
CCOCCn1c(C(=O)C2CCN(CCc3ccc(OC)cc3)CC2)nc2ccccc21 [Example 1, 1-[[(2-Ethoxy)ethyl]-1H-benzimidazol-2-yl][1-[2-(4-methoxyphenyl)ethyl]-4-piperidinyl]methanone hydrochloride] | 0.407 nM | – | –
CC(C)(C)OC(=O)N1CCC(C(=O)c2nc3ccccc3n2Cc2ccc(F)cc2)CC1 [Example 2 Step a, 1-[[(4-Fluorophenyl)methyl]-1H-benzimidazol-2-yl][1-(t-butyloxycarbonyl)-4-piperidinyl]methanone] | > 100 nM | – | –
COC(=O)COCCN1CCC(C(=O)c2nc3ccccc3n2Cc2ccc(F)cc2)CC1 [Example 2, 1-[[(4-Fluorophenyl)methyl]-1H-benzimidazol-2-yl][1-(carbomethoxymethoxyethyl)-4-piperidinyl]methanone] | – | 1.78 nM | –
O=C(O)CN1CCC(C(=O)c2nc3ccccc3n2Cc2ccc(F)cc2)CC1 [Example 4, 1-[[(4-Fluorophenyl)methyl]-1H-benzimidazol-2-yl][1-(carboxymethyl)-4-piperidinyl]methanone] | 2.34 nM | – | –
CCN(CC)C(=O)N1CCC(C(=O)c2nc3ccccc3n2Cc2ccc(F)cc2)CC1 [Example 6, 1-[[(4-Fluorophenyl)methyl]-1H-benzimidazol-2-yl][1-(N,N-diethylcarbamoyl)-4-piperidinyl]methanone] | – | – | pA2 value in the guinea pig ileum screen [1]: 7.7
CC(=O)N1CCC(C(=O)c2nc3ccccc3n2Cc2ccc(F)cc2)CC1 [Example 7, 1-[[(4-Fluorophenyl)methyl]-1H-benzimidazol-2-yl-][1-(acetyl)-4-piperidinyl]methanone] | > 100 nM | – | –
O=C(c1nc2ccccc2n1Cc1ccc(F)cc1)C1CCN(C(=O)C(F)(F)F)CC1 [Example 8, 1-[[(4-Fluorophenyl)methyl]-1H-benzimidazol-2-yl][1-(trifluoroacetyl)-4-piperidinyl]methanone] | 10.2 nM | – | –
O=C(CN1CCC(C(=O)c2nc3ccccc3n2Cc2ccc(F)cc2)CC1)Nc1nnn[nH]1 [Example 9, 1-[[(4-Fluorophenyl)methyl]-1H-benzimidazol-2-yl][1-(tetrazoleacetamide)-4-piperidinyl]methanone] | – | 2.4 nM | –
CN1CCC(C(=O)c2nc3ccccc3n2Cc2ccc(F)cc2)CC1 [Example 28, 1[[(4-Fluorophenyl)methyl]-1H-benzimidazol-2-yl][1-methyl-4-piperidinyl]methanone] | – | 0.661 nM | –
CN1CCC(C(O)c2nc3ccccc3n2Cc2ccc(F)cc2)CC1 (centres unmarked) [Example 29, 1-[[(4-Fluorophenyl)methyl]-1H-benzimidazol-2-yl][1-methyl-4-piperidinyl]methanol] | – | 2.34 nM | –

From patent US5380731A, “Antiallergic compounds” (Merrell Dow Pharmaceuticals Inc., priority 1993, dated 1995)
